A short description of data set [1]: Cytotoxicity, microtetrazolium test (MTT). The following applies: dog, MDCK cells, CC50 (MDCK), mean ±SD.
The test system of the next data set is SARS-CoV-2 coronavirus. Nature of the data set: Activity against SARS-CoV-2 coronavirus on U2-OS ACE2 cells (S-Fuse, GFP signal). The following applies: Severe acute respiratory syndrome coronavirus 2, U2OS; SARS-CoV-2, U2-OS ACE2 cells, MOI 0.1, 20 hours. It counts as cell-based.
Another data set has as its system U2-OS ACE2 cells. Nature of the data set: Cytotoxicity on U2-OS ACE2 cells (Hoechst signal). The following applies: 20 hours.
Data set [2] deals with MDCK cells. Nature of the data set: Cytotoxicity, microtetrazolium test (MTT). The following applies: 48 h, mean ±SD.
The nature of data set [3]: Acute oral toxicity, fixed dose method (OECD 420). To be noted: for GHS hazard class: acute oral toxicity in mice, UN GHS classification; for Died / Survived: female BALB/c mice, intragastric.
In data set [4] the test system is MDCK cells.

≈ marks a conversion by molar mass, not a printed value. Where a name gives a salt, the structure may show the parent alone. Read-outs that look alike come from different tables or passages of the source.

By CC50 is commonly meant the concentration at which the toxic effect on the cells reaches its halfway point. The IC50 is the point on the concentration scale where inhibition reaches its midpoint. The low end stands for inhibition by little substance, the high end for a need for much substance. As a reminder, the melting point is the temperature of the solid-liquid transition. Molecule `COC(=O)c1c(N(Cc2ccccc2)C(C)=O)sc2cc(O)ccc12` [Example 4, Methyl 2-[acetyl(benzyl)amino]-6-hydroxy-1-benzothiophene-3-carboxylate] yielded a melting point of 165 to 167 °C. For the same molecule, the CC50 at 48 h in data set [1] stood at 200 µg/mL (≈ 563 µM). The same molecule had an IC50 in the data set on SARS-CoV-2 coronavirus of 10.6 µM. In addition, the Cytotoxicity result in the data set on U2-OS ACE2 cells is reported as “Non-toxic up to 2500 μM”.
For `COC(=O)c1c(N(Cc2ccccc2)C(C)=O)sc2c(CN(C)C)c(O)ccc12` [Example 50, Methyl 2-[acelyl (benzyl)amino-7-[(dimethylamino)methyl]-6-hydroxy-1-benzothiophene-3-carboxylate], half-maximal cytotoxicity in data set [1] (CC50 at 48 h) was put at 182 µg/mL (≈ 441 µM). For the same molecule, the IC50 with SARS-CoV-2 coronavirus worked out at 9.08 µM. Moreover, the Cytotoxicity result in the data set on U2-OS ACE2 cells is “Non-toxic up to 2500 μM”.
On to `COC(=O)c1c(N(Cc2ccc(F)cc2F)C(C)=O)sc2c(CN(C)C)c(O)ccc12` [Example 55], for which the melting point lay within 118 to 122 °C. Besides, the half-maximal cytotoxic concentration (CC50) at 48 h in data set [1] was above 300 µg/mL. The molecule further had an IC50 with SARS-CoV-2 coronavirus of 15.6 µM. Besides, in the data set with U2-OS ACE2 cells, the Cytotoxicity result is given as “Non-toxic up to 2500 μM”.
`COC(=O)c1c(N(Cc2ccccc2)C(C)=O)sc2c(CN(C)C)c(O)ccc12` [Example 61, Methyl 2-[acetyl(benzyl)amino-7-[(dimethylamino)methyl]-6-hydroxy-1-benzothiophene-3-carboxylate hydrochloride]: the “CC50 (MDCK)” value with MDCK cells [2] (hydrochloride) is above 300 µg/mL. For the same molecule, the GHS hazard class in data set [3] came out at 4. Moreover, the Died in data set [3] (300 mg/kg) is 0; in data set [3] (2000 mg/kg) it was 1. Besides, the Survived in data set [3] (300 mg/kg) came out at 4; in data set [3] (2000 mg/kg) it was 1.
In the case of `COC(=O)c1c(N(Cc2ccc(F)cc2)C(C)=O)sc2c(CN(C)C)c(O)ccc12` [Example 62, Methyl 2-[acetyl(4-fluorobenzyl)amino-7-[(dimethylamino)methyl]-6-hydroxy-1-benzothiophene-3-carboxylate hydrochloride], the CC50 at 48 h in data set [1] stood at 92 ± 7 µg/mL. This molecule gave a concentration for half-maximal inhibition (IC50) in the data set with SARS-CoV-2 coronavirus of 11.3 µM. Besides, the Cytotoxicity result with U2-OS ACE2 cells is “Non-toxic up to 2500 μM”.
`CCN(CC)Cc1c(O)ccc2c(C(=O)OC)c(N(Cc3ccccc3)C(C)=O)sc12` [Example 64, hydrochloride] registered a CC50 at 48 h in data set [1] of 148 ± 11 µg/mL. For the same molecule, the IC50 in the data set on SARS-CoV-2 coronavirus is 9.12 µM. Besides, the Cytotoxicity result with U2-OS ACE2 cells is listed as “Non-toxic up to 2500 μM”.
Molecule `COC(=O)c1c(N(Cc2ccccc2)C(C)=O)sc2c(CN3CCN(C)CC3)c(O)ccc12` [Example 65, Methyl 2-[acetyl(benzyl)amino-6-hydroxy-7-[(4-methylpiperazin-1-yl)methyl]-1-benzothiophene-3-carboxylate hydrochloride] gave a CC50 at 48 h in data set [1] of 18.7 ± 1.6 µg/mL. This molecule had an IC50 with SARS-CoV-2 coronavirus of 9.8 µM. For the same molecule, in the data set with U2-OS ACE2 cells, the Cytotoxicity entry is “Non-toxic up to 2500 μM”.
Regarding `CNC(=O)c1c(N(Cc2ccccc2)C(C)=O)sc2cc(O)ccc12` [Example 73, 2-[acetyl(benzyl)amino]-6-hydroxy-N-methyl-1-benzothiophene-3-carboxamide], the CC50 at 48 h in data set [1] is above 300 µg/mL. Also, the midpoint of inhibition with SARS-CoV-2 coronavirus, the IC50, lay at 23 µM. The molecule further came in with a GHS hazard class in data set [3] of 5. In data set [3] (2000 mg/kg), this molecule displayed a Died of 0 and a Survived of 4. Further, the Cytotoxicity result with U2-OS ACE2 cells was “Non-toxic up to 2500 μM”.
With `CSc1nc2nnc([N+](=O)[O-])c(=O)n2[nH]1` [Triazavirin, Methylthionitrooxodihydro-triazolotriazinide sodium], the “CC50 (MDCK)” value in the data set on MDCK cells [4] came out at 298 ± 22 µg/mL.
Turning to `CCOC(=O)c1c(CSc2ccccc2)n(C)c2cc(Br)c(O)c(CN(C)C)c12` [Umifenovir, reference compound], in data set [1], the CC50 at 48 h amounted to 16 µg/mL (≈ 33.5 µM). This molecule gave an IC50 with SARS-CoV-2 coronavirus of 76 µM. In the data set with U2-OS ACE2 cells, the Cytotoxicity entry was “Non-toxic up to 2500 μM”.
As to “Pentandioic acid imidazolylethanamide [Ingavirin, reference compound]”, in the data set on MDCK cells [2], the “CC50 (MDCK)” value was determined as 300 ± 12 µg/mL.

(Values after US20240174629A1 (OTCPHARM JSC, priority 2021, published 2024).)
